The record followed here is patent US20030125234A1, “Alteration of protein stability” (priority 2001, published 2003).

Holding throughout (assay type): biochemical
One test has as its target T1, Bovine insulin (Bos taurus, UniProt P01317).
T1 construct: purchased Sigma, St. Louis, Mo., USA
Kind of test: Insulin aggregation (turbidity at 360 nm) induced by DTT. The settings on record: Insulin 0.25 mg/mL, 25° C., DTT; compound 100×; standard deviation in parenthesis. The protocol:
(§1) Bovine insulin [Sigma, St. Louis, Mo., USA] was dissolved in phosphate saline (PBS) (50 mM sodium biphosphate, 100 mM sodium chloride), pH 7.0, bovine alpha-lactalbumin [Sigma] in 50 mM sodium phosphate, 100 mM sodium chloride and 2 mM EDTA, pH 6.2, chicken egg white lysozyme [Sigma] in 100 mM Tris, 1 mM EDTA, pH 8.2, human acidic fibroblast growth factor (FGF-1) in 6.2 mM sodium biphosphate, 120 mM sodium chloride, pH 7.2, porcine somatotropin (pST) [provided by Pfizer, Inc., Groton, Conn., USA] in 10 mM phosphate, pH 6. 1, human apolactoferrin (HLF) [Sigma] in 20 mM HEPES, 154 mM NaCl, pH 7.4, porcine heart citrate synthase (CS) in 40 mM HEPES, 50 mM KCl, 10 mM (NH4)2SO4 mM potassium acetate, pH 7.8, and yeast alcohol dehydrogenase (ADH) [Sigma] in pH 7.0 PBS. Selection of buffer solutions was based on an extensive series of preliminary studies to obtain appropriate insolubilization kinetics as described below.
(§2) Copper O-phenanthroline (1,10-phenanthroline) was prepared by mixing copper sulfate hexahydrate [Fisher] and o-phenanthroline [Sigma] in a 1:2 ratio. 1 M Dithiothreitol (DTT) was prepared at pH 7.0 PBS. Polyethylene glycol (M.W. 8000, Union Carbide, Danbury, Conn., USA) (PEG) was prepared at 20 mg/mL in 10 mM phosphate, pH 6.1.
(§3) The following compounds were obtained from Sigma and used without further purification: oxalic acid, sodium malonate, succinic acid, glutaric acid, adipic acid, pimelic acid, suberic acid, azelaic acid, guanidine hydrochloride, ammonium formate, beta-alanine, 4-aminobutyric acid, 5-aminovaleric acid, 6-aminocaproic acid, 7-aminoheptanoic acid, hydrazine, ethylenediamine, 1,3-diaminopropane, 1,4-diaminobutane, 1,5-diaminopentane, 1,6-diaminohexane, 1,7-diaminoheptane, Glu-Glu, Glu-Lys, Lys-Lys, diglycine, triglycine, tetraglycine, pentaglycine, and hexaglycine. […] Triglycine and tetraglycine were dissolved in pH 8.6 PBS, while pentaglycine and hexaglycine were dissolved in pH 10.6 PBS.
(§4) Each was either dissolved in pH 7.0 PBS, or pH 6.1 10 mM phosphate, and adjusted to the same pH.
(§5) Protein aggregation was monitored for 1 hour at 360 nm using an HP8453 UV-visible spectrophotometer system [Hewlett Packard, Germany]. […] Insulin (0.25 mg/mL (4.39E-5 M)) aggregation was monitored at 25° C. after addition of potential inhibitors and 20 μL of 1 M DTT (1.27E-4 M). Alpha-lactabumin (0.4 mg/mL (2.82E-5 M)) aggregation was monitored at 37° C. in the presence of 20 μL of 1 M DTT (1.27E-4 M). Lysozyme (0.4 mg/mL (2.86E-5 M)) aggregation was monitored at 25° C. in the presence of 20 μL of 1 M DTT (1.27E-4 M). FGF-1 (50 μg/mL (3.12E-6 M)) aggregation was monitored at 50° C. Porcine somatotropin (1.27 mg/mL (5.76E-5 M)) aggregation was monitored at 60° C. in the presence of PEG 8000 (20 mg/mL) which was included to enhance the protein association process through a simple exclusion volume effect. HLF (0.4 mg/mL (5.23E-6 M)) aggregation was monitored at 43° C. in the presence of 1.27E-4 M DTT. Citrate synthase (96 μg/mL (9.80E-7 M)) aggregation was monitored at45° C. ADH (1 mg/mL (7.14E-6 M)) was monitored at 37° C. following the addition of 7.76E-5 M Cu(OP)2. Aggregation was compared to protein in the absence of the particular dipolar compound. After stirring, experiments were initiated by the addition of proteins followed by stressing reagents to 1 cm pathlength cuvettes employing a seven-position thermostatted sample holder that was cycled at 30-second intervals. Alternatively, a microtiter plate reader was employed under the same conditions in a 96 well format.
(§6) All optical density (OD)360nm versus time results were exported into Excel [Microsoft] for data analysis.

Test [1] deals with T2, human apolactoferrin (HLF) (Homo sapiens, UniProt P02788).
T2 construct: purchased Sigma
Kind of test: HLF aggregation (turbidity at 360 nm) induced by DTT. The settings on record: HLF 0.4 mg/mL, 43° C., DTT; first HLF column, head 10,000×; standard deviation in parenthesis. The method, then: as §1, §2, §3, §4, §5, §6

In test [2] the target is T3, yeast alcohol dehydrogenase (ADH) (Saccharomyces cerevisiae, UniProt P00330).
T3 construct: purchased Sigma
T3 sequence (P00330 2-348 limits assumed): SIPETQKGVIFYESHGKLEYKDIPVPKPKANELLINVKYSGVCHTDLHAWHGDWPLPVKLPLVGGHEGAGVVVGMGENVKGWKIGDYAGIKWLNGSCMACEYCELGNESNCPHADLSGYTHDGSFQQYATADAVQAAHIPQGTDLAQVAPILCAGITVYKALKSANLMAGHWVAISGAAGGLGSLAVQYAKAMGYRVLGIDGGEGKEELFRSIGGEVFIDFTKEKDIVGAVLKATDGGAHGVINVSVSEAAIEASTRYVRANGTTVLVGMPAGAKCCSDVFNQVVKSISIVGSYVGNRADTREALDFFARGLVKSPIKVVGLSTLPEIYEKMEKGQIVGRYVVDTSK
Nature of the test: ADH oxidation-induced aggregation (turbidity at 360 nm), Cu(OP)2. The following applies: ADH 1 mg/mL, 37° C., Cu(OP)2. The method, then:
as §1, §2, §3, §4, §5, §6

The target in test [3] is T4, chicken egg white lysozyme (Gallus gallus, UniProt P00698).
T4 construct: chicken egg white lysozyme [Sigma]; purchased Sigma; host or cells: egg white
Kind of test: Lysozyme aggregation (turbidity at 360 nm) induced by DTT. The settings on record: Lysozyme 0.4 mg/mL, 25° C., DTT; compound 1,000×; standard deviation in parenthesis. The method, then: as §1, §2, §3, §4, §5, §6

For a further test, the target named is T5, bovine alpha-lactalbumin (Bos taurus, UniProt P00711).
T5 construct: purchased Sigma
T5 sequence (P00711 20-142): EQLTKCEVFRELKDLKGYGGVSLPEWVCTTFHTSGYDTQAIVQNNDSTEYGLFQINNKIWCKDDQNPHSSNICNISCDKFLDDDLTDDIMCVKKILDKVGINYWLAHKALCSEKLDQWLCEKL
Kind of test: Alpha-lactalbumin aggregation (turbidity at 360 nm) induced by DTT. The settings on record: for inhibition index: α Lactalbumin 0.4 mg/mL, 37° C., DTT, compound 1,000×, standard deviation in parenthesis. The method, then: as §1, §2, §3, §4, §5, §6

The target in test [4] is T6, porcine heart citrate synthase (CS) (Sus scrofa, UniProt P00889).
T6 construct: porcine heart citrate synthase (CS); from tissue; host or cells: porcine heart
T6 sequence (P00889 28-464): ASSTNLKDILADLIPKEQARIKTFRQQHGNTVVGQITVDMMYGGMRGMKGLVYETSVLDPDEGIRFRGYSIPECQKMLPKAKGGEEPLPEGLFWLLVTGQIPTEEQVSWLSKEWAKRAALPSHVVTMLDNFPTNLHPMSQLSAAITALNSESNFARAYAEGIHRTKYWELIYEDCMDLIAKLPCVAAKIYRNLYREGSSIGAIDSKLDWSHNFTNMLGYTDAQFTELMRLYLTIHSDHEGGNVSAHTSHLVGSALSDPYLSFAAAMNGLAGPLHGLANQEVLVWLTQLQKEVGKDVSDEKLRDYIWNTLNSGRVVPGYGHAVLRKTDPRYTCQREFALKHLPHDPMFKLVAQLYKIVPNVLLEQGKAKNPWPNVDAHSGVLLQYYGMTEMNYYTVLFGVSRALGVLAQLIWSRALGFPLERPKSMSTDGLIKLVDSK
Kind of test: Citrate synthase thermal aggregation (turbidity at 360 nm). The settings on record: CS 96 μg/mL, 45° C.; compound 1,000X; standard deviation in parenthesis. The protocol:
as §1, §3, §4, §5
(§7) All optical density (OD)360nm versus time results were exported into Excel [Microsoft] for data analysis. […] The maximum rate of change in OD versus time plots (r) was used to determine the rate of the reaction from the slope at this point.

The target in test [5] is T7, porcine somatotropin (pST) (Sus scrofa, UniProt P01248).
T7 construct: purchased Pfizer, Inc., Groton, Conn., USA (provided, not bought)
T7 sequence (P01248 27-216): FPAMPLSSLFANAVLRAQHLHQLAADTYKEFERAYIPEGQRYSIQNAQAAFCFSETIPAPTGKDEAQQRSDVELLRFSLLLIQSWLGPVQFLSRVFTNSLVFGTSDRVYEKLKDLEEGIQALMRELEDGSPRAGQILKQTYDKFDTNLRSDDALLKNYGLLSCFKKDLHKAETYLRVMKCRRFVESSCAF
Kind of test: Porcine somatotropin aggregation (turbidity at 360 nm) with PEG 8000. The settings on record: pST 1.27 mg/mL, 60° C., compound 100X, standard deviation in parenthesis. The protocol: as §1, §2, §3, §4, §5, §6

In test [6] the target is human acidic fibroblast growth factor (FGF-1) (Homo sapiens, UniProt P05230). Nature of the test: FGF-1 thermal aggregation (turbidity at 360 nm). The following applies: FGF-1 50 μg/mL, 50° C.; compound 1,000×; standard deviation in parenthesis. The method, then: as §1, §3, §4, §5, §7
Where [7] appears, read: compound 1,000X, standard deviation in parenthesis.

T4 sequence (P00698 19-147): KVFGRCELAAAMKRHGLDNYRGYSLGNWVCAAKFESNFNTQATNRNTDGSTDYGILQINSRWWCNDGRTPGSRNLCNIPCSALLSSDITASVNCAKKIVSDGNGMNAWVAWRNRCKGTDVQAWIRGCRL
Sequence of human acidic fibroblast growth factor (FGF-1) (P05230 whole entry): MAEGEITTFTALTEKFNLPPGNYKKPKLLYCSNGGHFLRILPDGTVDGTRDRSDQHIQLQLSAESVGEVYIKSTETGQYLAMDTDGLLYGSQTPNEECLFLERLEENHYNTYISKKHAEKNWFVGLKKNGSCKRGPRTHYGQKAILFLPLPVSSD
T1 sequence (P01317 25-54 limits assumed): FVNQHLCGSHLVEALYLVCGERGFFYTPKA
T1 sequence (P01317 85-105 limits assumed): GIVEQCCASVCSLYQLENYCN
T2 sequence (P02788 20-710): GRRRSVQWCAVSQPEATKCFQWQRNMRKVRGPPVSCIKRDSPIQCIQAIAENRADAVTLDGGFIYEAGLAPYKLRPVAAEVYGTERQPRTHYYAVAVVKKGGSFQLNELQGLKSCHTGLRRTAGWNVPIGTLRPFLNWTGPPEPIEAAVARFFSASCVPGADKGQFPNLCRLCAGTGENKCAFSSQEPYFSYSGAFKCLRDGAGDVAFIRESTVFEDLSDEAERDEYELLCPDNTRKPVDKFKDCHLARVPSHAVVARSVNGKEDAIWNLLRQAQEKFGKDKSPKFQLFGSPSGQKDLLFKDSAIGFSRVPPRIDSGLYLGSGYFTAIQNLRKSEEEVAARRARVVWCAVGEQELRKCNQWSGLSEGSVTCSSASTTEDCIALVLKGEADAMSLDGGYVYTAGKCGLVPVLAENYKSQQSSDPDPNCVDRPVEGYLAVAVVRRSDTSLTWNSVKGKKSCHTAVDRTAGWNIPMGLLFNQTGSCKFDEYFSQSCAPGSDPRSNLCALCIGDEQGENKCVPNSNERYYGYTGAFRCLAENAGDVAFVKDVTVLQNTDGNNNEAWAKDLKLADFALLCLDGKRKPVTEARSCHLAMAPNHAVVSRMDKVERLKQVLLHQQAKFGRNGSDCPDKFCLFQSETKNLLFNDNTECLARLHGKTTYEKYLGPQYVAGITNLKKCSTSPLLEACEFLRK

Regarding “CH3—NH2-(Glu)^−-(Gly)n-(Glu)^−-COO^− [CH3—NH2—(E)^−—(G)1—(E)^−—COO^−]”, the inhibition index on Bovine insulin is 0.5 (0.2); in test [1] it was 1.6 (0.1); in test [2] (setting [7]), 1.6 (0.1); in test [3], 0.9 (0.1); at bovine alpha-lactalbumin, 0.2 (0.1); in test [4], 0.8 (0.1). The inhibition index is 1.0 (0.1) in test [5] and 1.9 (0.1) in test [6].

Regarding “CH3—NH2-(Glu)^−-(Gly)n-(Glu)^−-COO^− [CH3—NH2—(E)^−—(G)3—(E)^−—COO^−]”, the inhibition index is on record as 1.3 (0.4) at Bovine insulin; 1.5 (0.3) in test [1]; 1.3 (0.1) in test [2] (setting [7]); 0.9 (0.2) in test [3]; 0.5 (0.3) on bovine alpha-lactalbumin; 1.0 (0.2) in test [4]. The inhibition index in test [5] was 1.2 (0.2); in test [6] it was 2.0 (0.3).

As for “KGGGGGE [^+NH3-(Lys)^+-(Gly)n-(Glu)^−-COO^−, n = 5]”, the inhibition index with Bovine insulin is on record as 1.3 (0.3); in test [1] it was 0.8 (0.1); in test [2] (setting [7]), 1.4 (0.2); in test [3], 1.5 (0.4); in the test with bovine alpha-lactalbumin, 1.8 (0.2); in test [4] it was 2.0 (0.2). Besides, the inhibition index in test [5] was 0.5 (0.1); in test [6], 1.4 (0.3).

Consider “^+NH3-(Lys)^+-(Gly)n-(Glu)^−-COO^− [KGE]”, for which the inhibition index at Bovine insulin is given as 0.6 (0.3); in test [1] it was 0.9 (0.1); in test [2] (setting [7]) it was 1.3 (0.1); in test [3] it was 2.8 (0.8); on bovine alpha-lactalbumin it was 0.3 (0.2); in test [4], 1.2 (0.2). Besides, the inhibition index in test [5] is 0.7 (0.0); in test [6] it was 1.7 (0.4).

As to “^+NH3-(Lys)^+-(Gly)n-(Lys)^+-CONH2 [^+NH3—(K)^+—(G)1—(K)^+—CONH2]”, the inhibition index is listed as 0.9 (0.1) at Bovine insulin; 1.5 (0.2) in test [1]; 1.2 (0.1) in test [2] (setting [7]); 0.9 (0.2) in test [3]; 0.5 (0.2) on bovine alpha-lactalbumin; 1.0 (0.3) in test [4]. Further, the inhibition index in test [6] is on record as 2.3 (0.4).

With “^+NH3-(Lys)^+-(Gly)n-(Lys)^+-CONH2 [^+NH3—(K)^+—(G)3—(K)^+—CONH2]”, the inhibition index on Bovine insulin is listed as 0.9 (0.3); in test [1] it was 2.1 (0.1); in test [2] (setting [7]) it was 1.2 (0.1); in test [3], 1.2 (0.7); at bovine alpha-lactalbumin it was 0.8 (0.1); in test [4], 0.6 (0.1). The inhibition index in test [6] is on record as 1.5 (0.4).

With “^+NH3-(Lys)^+-(Gly)n-(Lys)^+-CONH2 [^+NH3—(K)^+—(G)5—(K)^+—CONH2]”, the inhibition index at Bovine insulin was 1.7 (1.0); in test [1] it was 1.5 (0.3); in test [2] (setting [7]), 1.5 (0.2); in test [3], 0.8 (0.4); at bovine alpha-lactalbumin, 2.6 (1.1); in test [4] it was 0.8 (0.1). In test [6], the inhibition index is given as 3.3 (0.8). Also, at bovine alpha-lactalbumin, the “inhibition of α-lactalbumin aggregation, in words” value is “Potent inhibitors”.

On to hexaglycine, for which the inhibition index at Bovine insulin is on record as 1.5 (0.7); in test [1] it was 1.7 (1.5); in test [2] (setting [7]) it was 1.7 (0.5); in test [2] (compound 10,000X molar excess, Infinite = complete inhibition of aggregation over one hour), 20.3; in test [3], 0.0 (0.0); at bovine alpha-lactalbumin, 4.2 (1.1). Further, the inhibition index is given as 0.5 (0.1) in test [4] and 0.7 (0.1) in test [5]. The “inhibition of α-lactalbumin aggregation, in words” value against bovine alpha-lactalbumin is given as “Potent inhibitors”.
